Data on 29 compounds can be found in patent US9376436B2, “2-(pyridin-2yl)-1, 7-diaza-spiro [4.4] nonane-6-one compound as voltage-gated sodium channels modulators” (CONVERGENCE PHARMACEUTICALS LIMITED, priority 2011, dated 2016).

The assay concerns the target T1, hNaV1.7 (Homo sapiens, UniProt Q15858).
T1 construct: expressed in transfected cells; host or cells: HEK293
The assay can be described thus: QPatch NaV1.7 assay (whole-cell patch clamp, QPatch16x). The settings on record: HEK293-hNaV1.7 cells. The format is cell-based. Summed up: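 Automated whole-cell recordings in hNaV1.7-expressing HEK293 cells, holding at either −90 mV (mostly closed channels) or the half-inactivation voltage. Compounds applied cumulatively at four concentrations for 120 s each; peak current on 20 ms depolarisation to 0 mV fitted by Hill equation to yield pIC50.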

[1] abbreviates: holding voltage V1/2 SSI (half of channels inactivated), read-out: QP Nav1.7 SSI vhalf pIC50 (converted).
Where [2] appears, read: holding voltage −90 mV (most channels closed), read-out: QP Nav1.7 −90 mV pIC50 (converted).

Where a name gives a salt, the structure may show the parent alone. Read-outs that look alike come from different tables or passages of the source.

T1 sequence (Q15858 whole entry): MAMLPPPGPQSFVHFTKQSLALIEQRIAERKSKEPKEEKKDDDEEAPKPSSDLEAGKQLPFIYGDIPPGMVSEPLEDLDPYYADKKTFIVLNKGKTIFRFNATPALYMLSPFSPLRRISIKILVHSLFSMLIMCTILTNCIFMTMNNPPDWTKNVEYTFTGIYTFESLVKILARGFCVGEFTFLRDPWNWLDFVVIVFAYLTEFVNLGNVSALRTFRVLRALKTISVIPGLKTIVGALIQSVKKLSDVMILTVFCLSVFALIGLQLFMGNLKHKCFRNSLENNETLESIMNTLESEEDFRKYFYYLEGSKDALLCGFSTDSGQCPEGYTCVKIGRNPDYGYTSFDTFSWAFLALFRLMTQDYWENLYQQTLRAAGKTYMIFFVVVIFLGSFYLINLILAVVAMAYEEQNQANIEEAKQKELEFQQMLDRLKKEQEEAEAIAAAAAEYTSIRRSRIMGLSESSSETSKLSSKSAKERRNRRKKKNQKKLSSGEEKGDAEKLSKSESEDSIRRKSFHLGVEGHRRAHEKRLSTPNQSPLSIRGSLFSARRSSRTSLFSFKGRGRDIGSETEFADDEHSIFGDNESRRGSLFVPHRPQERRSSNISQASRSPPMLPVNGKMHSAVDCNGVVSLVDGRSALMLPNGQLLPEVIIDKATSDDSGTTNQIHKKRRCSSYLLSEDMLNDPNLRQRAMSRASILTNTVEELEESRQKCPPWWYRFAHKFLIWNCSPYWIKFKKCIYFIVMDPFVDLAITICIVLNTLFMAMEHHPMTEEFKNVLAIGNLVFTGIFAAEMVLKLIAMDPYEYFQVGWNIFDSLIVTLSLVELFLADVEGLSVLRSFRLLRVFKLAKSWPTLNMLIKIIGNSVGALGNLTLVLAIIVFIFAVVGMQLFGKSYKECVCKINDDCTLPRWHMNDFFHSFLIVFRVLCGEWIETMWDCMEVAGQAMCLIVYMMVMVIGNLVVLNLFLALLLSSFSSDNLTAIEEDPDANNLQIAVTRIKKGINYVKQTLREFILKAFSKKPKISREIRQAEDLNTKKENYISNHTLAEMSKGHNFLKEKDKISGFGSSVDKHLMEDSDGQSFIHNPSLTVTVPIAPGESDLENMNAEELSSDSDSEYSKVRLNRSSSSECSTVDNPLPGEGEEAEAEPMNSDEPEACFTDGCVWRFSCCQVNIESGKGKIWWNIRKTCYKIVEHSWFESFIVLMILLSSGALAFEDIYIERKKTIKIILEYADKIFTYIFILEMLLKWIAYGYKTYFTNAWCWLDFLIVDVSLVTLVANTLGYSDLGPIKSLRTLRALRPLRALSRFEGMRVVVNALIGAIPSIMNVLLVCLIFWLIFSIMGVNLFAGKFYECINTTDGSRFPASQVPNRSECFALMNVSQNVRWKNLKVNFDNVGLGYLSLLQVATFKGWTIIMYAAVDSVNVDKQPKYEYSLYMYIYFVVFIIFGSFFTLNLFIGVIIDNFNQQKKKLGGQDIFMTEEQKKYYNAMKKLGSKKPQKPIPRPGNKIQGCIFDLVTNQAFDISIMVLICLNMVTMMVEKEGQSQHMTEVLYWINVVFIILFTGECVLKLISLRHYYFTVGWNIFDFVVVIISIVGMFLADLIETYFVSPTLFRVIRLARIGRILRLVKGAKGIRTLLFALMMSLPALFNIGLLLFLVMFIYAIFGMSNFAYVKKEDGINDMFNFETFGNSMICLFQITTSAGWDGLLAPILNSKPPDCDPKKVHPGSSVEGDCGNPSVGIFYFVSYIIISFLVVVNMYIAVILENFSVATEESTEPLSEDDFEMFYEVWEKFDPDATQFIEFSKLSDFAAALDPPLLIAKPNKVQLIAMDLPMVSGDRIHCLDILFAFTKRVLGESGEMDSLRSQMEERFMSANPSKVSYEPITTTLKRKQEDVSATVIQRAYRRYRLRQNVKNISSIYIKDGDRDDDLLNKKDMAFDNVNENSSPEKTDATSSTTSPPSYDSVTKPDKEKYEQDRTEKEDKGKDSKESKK

`Cc1c(-c2ccc(C(F)(F)F)cc2)ccnc1[C@@H]1CC[C@@]2(CCN(C)C2=O)N1` [Example 16, (2S,5S)-7-Methyl-2-[3-methyl-4-[4-(trifluoromethyl)phenyl]-2-pyridyl]-1,7-diazaspiro[4.4]nonan-6-one hydrochloride]: the IC50 was 12.6 µM under setting [1] and 100 µM under setting [2].
As for `CCOc1ccc(F)c(-c2ccnc([C@H]3CC[C@@]4(CC(C)(C)NC4=O)N3)c2)c1` [Example 217, (2R,5S)-2-[4-(5-Ethoxy-2-fluoro-phenyl)-2-pyridyl]-8,8-dimethyl-1,7-diazaspiro[4.4]nonan-6-one hydrochloride], the IC50 is 3.98 µM under setting [1] and 25.1 µM under setting [2].
The matching figures for `Cc1c(-c2ccc(C(F)(F)F)cc2)ccnc1[C@H]1CC[C@@]2(CCN(C)C2=O)N1` [Example 17, (2R,5S)-7-Methyl-2-[3-methyl-4-[4-(trifluoromethyl)phenyl]-2-pyridyl]-1,7-diazaspiro[4.4]nonan-6-one hydrochloride]: 3.16 µM and 20 µM.
In the case of `CC1(C)C[C@]2(CC[C@@H](c3cc(-c4ccc(C(F)(F)F)cc4)ccn3)N2)C(=O)N1` [Example 47, (2S,5R)-8,8-Dimethyl-2-[4-[4-(trifluoromethyl)phenyl]-2-pyridyl]-1,7-diazaspiro[4.4]nonan-6-one hydrochloride], the IC50 under setting [1] was 12.6 µM and the IC50 under setting [2] was 31.6 µM.
The matching figures for `Cc1cc(-c2ccc(C(F)(F)F)cc2)cc([C@@H]2CC[C@@]3(CCN(C)C3=O)N2)n1` [Example 29, (2S,5S)-7-Methyl-2-[6-methyl-4-[4-(trifluoromethyl)phenyl]-2-pyridyl]-1,7-diazaspiro[4.4]nonan-6-one hydrochloride]: 20 µM and 126 µM.
Consider `Cc1cc(-c2cc(N3CCCC3=O)ccc2F)cc([C@H]2CC[C@@]3(CCN(C)C3=O)N2)n1` [Example 203, (2R,5S)-2-[4-[2-Fluoro-5-(2-oxopyrrolidin-1-yl)phenyl]-6-methyl-2-pyridyl]-7-methyl-1,7-diazaspiro[4.4]nonan-6-one hydrochloride], for which the IC50 was 251 µM under setting [1] and 2000 µM under setting [2].
The matching figures for `CCOc1ccc(F)c(-c2ccnc([C@@H]3CC[C@]4(CC[C@H](C)NC4=O)N3)c2)c1` [Example 244, hydrochloride]: 3.16 µM and 39.8 µM.
For `CN1CCC[C@]2(CC[C@@H](c3cc(-c4ccc(C(F)(F)F)cc4)ccn3)N2)C1=O` [Example 69, (2S,5S)-7-Methyl-2-[4-(4-trifluoromethyl-phenyl)-pyridin-2-yl]-1,7-diaza-spiro[4.5]decan-6-one hydrochloride], the IC50 runs as follows: under setting [1], 7.94 µM; under setting [2], 31.6 µM.
The like results for `CCCOc1ccc(F)c(-c2cc(C)nc([C@H]3CC[C@@]4(CCN(C)C4=O)N3)c2)c1` [Example 196, (2R,5S)-2-[4-(2-Fluoro-5-propoxy-phenyl)-6-methyl-2-pyridyl]-7-methyl-1,7-diazaspiro[4.4]nonan-6-one hydrochloride] were, in that order, 0.1 µM and 1.58 µM.
The matching figures for `CN1CC[C@@]2(CC[C@H](c3cc(-c4cc(F)cc(F)c4)ccn3)N2)C1=O` [Example 77, (2R,5S)-2-[4-(3,5-Difluorophenyl)-2-pyridyl]-7-methyl-1,7-diazaspiro[4.4]nonan-6-one hydrochloride]: 31.6 µM and 316 µM.
The matching figures for `CCOc1ccc(F)c(-c2ccnc([C@H]3CC[C@]4(CC(C)(C)NC4=O)N3)c2)c1` [Example 218, (2R,5R)-2-[4-(5-Ethoxy-2-fluoro-phenyl)-2-pyridyl]-8,8-dimethyl-1,7-diazaspiro[4.4]nonan-6-one hydrochloride]: 0.501 µM and 6.31 µM.
For the compound `CN1CC[C@@]2(CC[C@H](c3cc(-c4cccc(-n5cccn5)c4)ccn3)N2)C1=O` [Example 173, (2R,5S)-7-Methyl-2-[4-(3-pyrazol-1-ylphenyl)-2-pyridyl]-1,7-diazaspiro[4.4]nonan-6-one hydrochloride], the IC50 is 12.6 µM under setting [1] and 200 µM under setting [2].
The like results for `CN1[C@@H](c2cc(-c3ccc(C(F)(F)F)cc3)ccn2)CC[C@]12CCCNC2=O` [Example 232, hydrochloride] were, in that order, 1.26 µM and 7.94 µM.
The like results for `CN1CC[C@@]2(CC[C@H](c3cc(-c4cccc5[nH]ncc45)ccn3)N2)C1=O` [Example 187, (2R,5S)-2-[4-(1H-Indazol-4-yl)-2-pyridyl]-7-methyl-1,7-diazaspiro[4.4]nonan-6-one hydrochloride] were, in that order, 200 µM and 1000 µM.
The matching figures for `Cc1cc(-c2ccc(C(F)(F)F)cc2)cc([C@@H]2CC[C@@]3(CCCNC3=O)N2)n1` [Example 101, (2S,5R)-2-[6-Methyl-4-(4-trifluoromethyl-phenyl)-pyridin-2-yl]-1,7-diaza-spiro[4.5]decan-6-one hydrochloride]: 10 µM and 12.6 µM.
In the case of `CN1CC[C@@]2(CC[C@H](c3cc(-c4cc(OC5CC5)ccc4F)ccn3)N2)C1=O` [Example 185, (2R,5S)-2-[4-[5-(Cyclopropoxy)-2-fluoro-phenyl]-2-pyridyl]-7-methyl-1,7-diazaspiro[4.4]nonan-6-one hydrochloride], the IC50 under setting [1] was 7.94 µM and the IC50 under setting [2] was 63.1 µM.
The matching figures for `Cc1cnc([C@@H]2CC[C@@]3(CCN(C)C3=O)N2)cc1-c1ccc(C(F)(F)F)cc1` [Example 40, (2S,5S)-7-Methyl-2-[5-methyl-4-[4-(trifluoromethyl)phenyl]-2-pyridyl]-1,7-diazaspiro[4.4]nonan-6-one hydrochloride]: 1.58 µM and 50.1 µM.
In the case of `CN1CC[C@@]2(CC[C@@H](c3cc(-c4ccccc4F)ccn3)N2)C1=O` [Example 33, (2S,5S)-2-[4-(2-Fluoro-phenyl)-pyridin-2-yl]-7-methyl-1,7-diaza-spiro[4.4]nonan-6-one hydrochloride], the IC50 reads like this: under setting [1], 39.8 µM; under setting [2], 126 µM.
As to `CN1CC[C@@]2(CC[C@H](c3cc(-c4cccc(Cl)c4C#N)ccn3)N2)C1=O` [Example 165, 2-Chloro-6-[2-[(2R,5S)-7-methyl-6-oxo-1,7-diazaspiro[4.4]nonan-2-yl]-4-pyridyl]benzonitrile hydrochloride], the IC50 was 100 µM under setting [1] and 158 µM under setting [2].
The like results for `Cc1c(-c2ccc(F)cc2)ccnc1[C@@H]1CC[C@@]2(CCN(C)C2=O)N1` [Example 20, (2S,5S)-2-[4-(4-Fluorophenyl)-3-methyl-2-pyridyl]-7-methyl-1,7-diazaspiro[4.4]nonan-6-one hydrochloride] were, in that order, 31.6 µM and 316 µM.
Turning to `CC1(C)C[C@@]2(CC[C@@H](c3cc(-c4ccc(C(F)(F)F)cc4)ccn3)N2)C(=O)N1` [Example 44, (2S,5S)-8,8-Dimethyl-2-[4-[4-(trifluoromethyl)phenyl]-2-pyridyl]-1,7-diazaspiro[4.4]nonan-6-one hydrochloride], the IC50 runs as follows: under setting [1], 10 µM; under setting [2], 50.1 µM.
Turning to `Cc1cc(C)cc(-c2ccnc([C@H]3CC[C@@]4(CCN(C)C4=O)N3)c2)c1` [Example 174, (2R,5S)-2-[4-(3,5-Dimethylphenyl)-2-pyridyl]-7-methyl-1,7-diazaspiro[4.4]nonan-6-one hydrochloride], the IC50 under setting [1] is 25.1 µM and the IC50 under setting [2] was 126 µM.
The matching figures for `CN1CC[C@@]2(CC[C@H](c3cc(-c4cccc(C(F)(F)F)c4)ccn3)N2)C1=O` [Example 75, (2R,5S)-7-Methyl-2-[4-[3-(trifluoromethyl)phenyl]-2-pyridyl]-1,7-diazaspiro[4.4]nonan-6-one hydrochloride]: 20 µM and 126 µM.
The matching figures for `O=C1NCC[C@@]12CC[C@@H](c1cc(-c3ccc(C(F)(F)F)cc3)ccn1)N2` [Example 36, (2S,5S)-2-[4-[4-(Trifluoromethyl)phenyl]-2-pyridyl]-1,7-diazaspiro[4.4]nonan-6-one hydrochloride]: 0.794 µM and 20 µM.
The like results for `CN1CC[C@@]2(CC[C@H](c3cc(-c4ccc(F)cc4F)ccn3)N2)C1=O` [Example 9, (2R,5S)-2-[4-(2,4-Difluorophenyl)-2-pyridyl]-7-methyl-1,7-diazaspiro[4.4]nonan-6-one hydrochloride] were, in that order, 63.1 µM and 1000 µM.
Regarding `CCOc1ccc(F)c(-c2ccnc([C@H]3CC[C@]4(CCN(C)C4=O)N3)c2)c1` [Example 146, (2R,5R)-2-[4-(5-Ethoxy-2-fluoro-phenyl)-2-pyridyl]-7-methyl-1,7-diazaspiro[4.4]nonan-6-one hydrochloride], the IC50 is, setting by setting: under setting [1], 2 µM; under setting [2], 31.6 µM.
The like results for `CCOc1ccc(F)c(-c2cc(OC)nc([C@H]3CC[C@@]4(CCN(C)C4=O)N3)c2)c1` [Example 250, (2R,5S)-2-[4-(5-Ethoxy-2-fluoro-phenyl)-6-methoxy-2-pyridyl]-7-methyl-1,7-diazaspiro[4.4]nonan-6-one hydrochloride] were, in that order, 1.26 µM and 20 µM.
The like results for `Cc1cc(-c2ccc(C(F)(F)F)cc2)cc([C@H]2CC[C@@]3(CCN(C)C3=O)N2)n1` [Example 28, (2R,5S)-7-Methyl-2-[6-methyl-4-[4-(trifluoromethyl)phenyl]-2-pyridyl]-1,7-diazaspiro[4.4]nonan-6-one hydrochloride] were, in that order, 5.01 µM and 31.6 µM.
The matching figures for `CCOc1cc(-c2cc(C)nc([C@H]3CC[C@]4(CCN(C)C4=O)N3)c2)ccc1F` [Example 124, (2R,5R)-2-[4-(3-Ethoxy-4-fluoro-phenyl)-6-methyl-2-pyridyl]-7-methyl-1,7-diazaspio[4.4]nonan-6-one hydrochloride]: 7.94 µM and 126 µM.
